# Data from US9255090B2, “Heterocyclyl derivatives and their use as prostaglandin D2 receptor modulators” (Actelion Pharmaceuticals Ltd., priority 2012, dated 2016).
# Target: hCRTH2 receptor (Homo sapiens (Human), UniProt Q9Y5Y4)
# Experiment: hCRTH2 receptor membranes radioligand (3H-PGD2) displacement assay
# Type: binding
# Conditions: 3H-PGD2 radioligand displacement, HEK293-hCRTH2 membranes
# Description: Biological Assays: Preparation of hCRTH2 Receptor Membranes and Radioligand Displacement Assay:
# First, recombinant HEK293-hCRTH2 cells were detached from culture plates into 5 ml buffer A/plate (Buffer A: 5 mM Tris, 1 mM MgCl2-6H2O pH=7.4) using a rubber policeman. Cells were then transferred into centrifugation tubes and centrifuged for 5 min at 400 g. The cell pellet was resuspended in the same buffer and tubes were frozen at −80° C. Cells were thawed and membrane fragments were generated by homogenization using a polytron homogenizer (30 seconds). The membrane fragments were then centrifuged at 3000 g for 20 minutes and resuspended in buffer C (Buffer C: 75 mM Tris, 25 mM MgCl2, 250 mM Saccharose pH 7.4). Aliquots of membrane fragments were stored at −20° C.
# Binding assay was performed in a final assay volume of 250 μl. First, 25 μl of test compound, previously diluted in Binding-Buffer (Binding-Buffer: 50 mM Tris-Base, 100 mM NaCl, 1 mM EDTA, 0.1% BSA (protease free), 0.01% NaN3, 10 mM MnCl2, pH 7.0) was placed into each well. After addition of 75 μl Binding-Buffer, 50 μl of the radioligand ^3H-PGD2 (at 2.5 nM (220.000 dpm/well) from ANAWA ART0662) was added to each well. Binding assay was started by addition of 100 μl CRTH2 membrane fragments, reaching a final concentration of 20 μg/well. For non-specific binding, PGD2 was added to the reaction mixture to […] final concentration. This assay mix was incubated for 90 minutes at room temperature and then filtered through a GF/C filter 96-well plate which was pre-soaked for 3 hours in 0.5% polyethyleneimine (PEI). The filter-wells were washed three times with ice cold Binding-Buffer. Then, 40 μl of Microscint-40 (Packard) was added to each well and the retained radioactivity quantified in a Topcount (Packard).
# hCRTH2 receptor, sequence (Q9Y5Y4 whole entry): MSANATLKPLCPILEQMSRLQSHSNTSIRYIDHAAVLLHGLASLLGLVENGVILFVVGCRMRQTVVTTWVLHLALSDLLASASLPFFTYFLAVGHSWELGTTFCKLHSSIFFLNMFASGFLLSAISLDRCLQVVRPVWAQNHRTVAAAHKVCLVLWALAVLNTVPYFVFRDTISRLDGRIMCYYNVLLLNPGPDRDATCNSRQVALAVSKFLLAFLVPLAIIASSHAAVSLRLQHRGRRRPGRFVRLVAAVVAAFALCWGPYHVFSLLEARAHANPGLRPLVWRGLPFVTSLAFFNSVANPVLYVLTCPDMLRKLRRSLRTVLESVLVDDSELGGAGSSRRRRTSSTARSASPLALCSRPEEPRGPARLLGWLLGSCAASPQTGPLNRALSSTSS
row,IC50,SMILES
1,69.5 nM,"O=C(O)Cc1cccc(-c2ccc(F)c3c2CN(C(=O)OCc2ccccc2)CC3)c1 [Example 24, 8-(3-Carboxymethyl-phenyl)-5-fluoro-3,4-dihydro-1H-isoquinoline-2-carboxylic acid benzyl ester]"
2,149 nM,"COc1ccc(CC(=O)O)cc1-c1ccc(S(C)(=O)=O)c2c1CN(C(=O)OCc1ccccc1)CC2 [Example 25, 8-(5-Carboxymethyl-2-methoxy-phenyl)-5-methanesulfonyl-3,4-dihydro-1H-isoquinoline-2-carboxylic acid benzyl ester]"
3,3.07 nM,"O=C(O)Cc1ccc(OC(F)(F)F)c(-c2ccc(F)c3c2CN(C(=O)[C@@H]2C[C@H]2c2ccccc2)CC3)c1 [Example 26, {3-[5-Fluoro-2-((1R,2R)-2-phenyl-cyclopropanecarbonyl)-1,2,3,4-tetrahydro-isoquinolin-8-yl]-4-trifluoromethoxy-phenyl}-acetic acid]"
4,12.9 nM,"CC(C)Oc1ccc(CC(=O)O)cc1-c1ccc(F)c2c1CN(C(=O)[C@@H]1C[C@H]1c1ccccc1)CC2 [Example 27, {3-[5-Fluoro-2-((1R,2R)-2-phenyl-cyclopropanecarbonyl)-1,2,3,4-tetrahydro-isoquinolin-8-yl]-4-isopropoxy-phenyl}-acetic acid]"
5,875 nM,"O=C(O)Cc1ccccc1-c1ccc(F)c2c1CN(C(=O)OCc1ccccc1)CC2 [Example 30, 8-(2-Carboxymethyl-phenyl)-5-fluoro-3,4-dihydro-1H-isoquinoline-2-carboxylic acid benzyl ester]"
6,113 nM,"COc1ccc(CC(=O)O)cc1-c1c(F)ccc2c1CN(C(=O)OCc1ccccc1)CC2 [Example 33, 8-(5-Carboxymethyl-2-methoxy-phenyl)-7-fluoro-3,4-dihydro-1H-isoquinoline-2-carboxylic acid benzyl ester]"
7,29.1 nM,"O=C(O)Cc1ccc(-c2ccc(F)c3c2CN(C(=O)OCc2ccccc2)CC3)cc1Cl [Example 40, 8-(4-Carboxymethyl-3-chloro-phenyl)-5-fluoro-3,4-dihydro-1H-isoquinoline-2-carboxylic acid benzyl ester]"
8,44.9 nM,"O=C(O)Cc1ccc(-c2ccc(F)c3c2CN(C(=O)OCc2ccccc2)CC3)cc1 [Example 41, 8-(4-Carboxymethyl-phenyl)-5-fluoro-3,4-dihydro-1H-isoquinoline-2-carboxylic acid benzyl ester]"
9,30.2 nM,"COc1ccc(CC(=O)O)cc1-c1ccc(F)c2c1CN(C(=O)COc1ccccc1)CC2 [Example 43, {3-[5-Fluoro-2-(2-phenoxy-acetyl)-1,2,3,4-tetrahydro-isoquinolin-8-yl]-4-methoxy-phenyl}-acetic acid]"
10,57.1 nM,"COc1ccc(CC(=O)O)cc1-c1ccc(F)c2c1CN(C(=O)CCc1cccnc1)CC2 [Example 51, {3-[5-Fluoro-2-(3-pyridin-3-yl-propionyl)-1,2,3,4-tetrahydro-isoquinolin-8-yl]-4-methoxy-phenyl}-acetic acid]"
11,42.1 nM,"COc1ccc(CC(=O)O)cc1-c1ccc(F)c2c1CN(C(=O)CCc1ccccc1C)CC2 [Example 56, {3-[5-Fluoro-2-(3-o-tolyl-propionyl)-1,2,3,4-tetrahydro-isoquinolin-8-yl]-4-methoxy-phenyl}-acetic acid]"
12,16.2 nM,"COc1ccc(CC(=O)O)cc1-c1ccc(F)c2c1CN(C(=O)CCn1cc(C)c3ccccc31)CC2 [Example 57, (3-{5-Fluoro-2-[3-(3-methyl-indol-1-yl)-propionyl]-1,2,3,4-tetrahydro-isoquinolin-8-yl}-4-methoxy-phenyl)-acetic acid]"
13,1.77 nM,"COc1ccc(CC(=O)O)cc1-c1ccc(F)c2c1CN(C(=O)[C@@H]1C[C@H]1c1ccccc1F)CC2 [Example 66, (3-{5-Fluoro-2-[(1R,2R)-2-(2-fluoro-phenyl)-cyclopropanecarbonyl]-1,2,3,4-tetrahydro-isoquinolin-8-yl}-4-methoxy-phenyl)-acetic acid]"
14,21.6 nM,"COc1ccc(CC(=O)O)cc1-c1ccc(F)c2c1CN(C(=O)CCn1ncc3ccccc31)CC2 [Example 67, {3-[5-Fluoro-2-(3-indazol-1-yl-propionyl)-1,2,3,4-tetrahydro-isoquinolin-8-yl]-4-methoxy-phenyl}-acetic acid]"
15,1.16 nM,"COc1ccc(CC(=O)O)cc1-c1ccc(Cl)c2c1CN(C(=O)[C@@H]1C[C@H]1c1ccccc1F)CC2 [Example 70, (3-{5-Chloro-2-[(1R,2R)-2-(2-fluoro-phenyl)-cyclopropanecarbonyl]-1,2,3,4-tetrahydro-isoquinolin-8-yl}-4-methoxy-phenyl)-acetic acid]"
16,30.2 nM,"COc1ccc(CC(=O)O)cc1-c1ccc(Cl)c2c1CN(C(=O)COCc1ccccc1Cl)CC2 [Example 73, (3-{5-Chloro-2-[2-(2-chloro-benzyloxy)-acetyl]-1,2,3,4-tetrahydro-isoquinolin-8-yl}-4-methoxy-phenyl)-acetic acid]"

# Second part, the compound before the results:
row,SMILES,IC50
1,"COc1ccc(CC(=O)O)cc1-c1c(F)ccc2c1CN(C(=O)[C@@H]1C[C@H]1c1ccccc1)CC2 [Example 35, {3-[7-Fluoro-2-((1R,2R)-2-phenyl-cyclopropanecarbonyl)-1,2,3,4-tetrahydro-isoquinolin-8-yl]-4-methoxy-phenyl}-acetic acid]",3.19 nM
2,"COc1ccc(CC(=O)O)cc1-c1c(F)cc(F)c2c1CN(C(=O)[C@@H]1C[C@H]1c1ccccc1)CC2 [Example 38, {3-[5,7-Difluoro-2-((1R,2R)-2-phenyl-cyclopropanecarbonyl)-1,2,3,4-tetrahydro-isoquinolin-8-yl]-4-methoxy-phenyl}-acetic acid]",11.2 nM
3,"COc1ccc(CC(=O)O)cc1-c1ccc(F)c2c1CN(C(=O)COc1ccc(F)cc1)CC2 [Example 44, (3-{5-Fluoro-2-[2-(4-fluoro-phenoxy)-acetyl]-1,2,3,4-tetrahydro-isoquinolin-8-yl}-4-methoxy-phenyl)-acetic acid]",59.1 nM
4,"CCOCC(=O)N1CCc2c(F)ccc(-c3cc(CC(=O)O)ccc3OC)c2C1 [Example 46, {3-[2-(2-Ethoxy-acetyl)-5-fluoro-1,2,3,4-tetrahydro-isoquinolin-8-yl]-4-methoxy-phenyl}-acetic acid]",774 nM
5,"COc1ccc(CC(=O)O)cc1-c1ccc(F)c2c1CN(C(=O)COC(C)(C)C)CC2 [Example 47, {3-[2-(2-tert-Butoxy-acetyl)-5-fluoro-1,2,3,4-tetrahydro-isoquinolin-8-yl]-4-methoxy-phenyl}-acetic acid]",551 nM
6,"COc1ccc2onc(CC(=O)N3CCc4c(F)ccc(-c5cc(CC(=O)O)ccc5OC)c4C3)c2c1 [Example 49, (3-{5-Fluoro-2-[2-(5-methoxy-benzo[d]isoxazol-3-yl)-acetyl]-1,2,3,4-tetrahydro-isoquinolin-8-yl}-4-methoxy-phenyl)-acetic acid]",54 nM
7,"COc1ccc(CC(=O)O)cc1-c1ccc(F)c2c1CN(C(=O)C1C(C)(C)C1(C)C)CC2 [Example 50, {3-[5-Fluoro-2-(2,2,3,3-tetramethyl-cyclopropanecarbonyl)-1,2,3,4-tetrahydro-isoquinolin-8-yl]-4-methoxy-phenyl}-acetic acid]",267 nM
8,"COc1ccc(CC(=O)O)cc1-c1ccc(F)c2c1CN(C(=O)C1CC1)CC2 [Example 52, [3-(2-Cyclopropanecarbonyl-5-fluoro-1,2,3,4-tetrahydro-isoquinolin-8-yl)-4-methoxy-phenyl]-acetic acid]",68.9 nM
9,"COc1ccc(CC(=O)O)cc1-c1ccc(F)c2c1CN(C(=O)CCN1CCCc3ccccc31)CC2 [Example 53, {3-[2-(3-3,4-Dihydro-2H-quinolin-1-yl-propionyl)-5-fluoro-1,2,3,4-tetrahydro-isoquinolin-8-yl]-4-methoxy-phenyl}-acetic acid]",4.49 nM
10,"COc1ccc2[nH]cc(CCC(=O)N3CCc4c(F)ccc(-c5cc(CC(=O)O)ccc5OC)c4C3)c2c1 [Example 63, (3-{5-Fluoro-2-[3-(5-methoxy-1H-indol-3-yl)-propionyl]-1,2,3,4-tetrahydro-isoquinolin-8-yl}-4-methoxy-phenyl)-acetic acid]",29.5 nM
11,"COc1ccc(CC(=O)O)cc1-c1ccc(F)c2c1CN(C(=O)[C@@H]1C[C@H]1c1ccc(Cl)cc1)CC2 [Example 64, (3-{2-[(1R,2R)-2-(4-Chloro-phenyl)-cyclopropanecarbonyl]-5-fluoro-1,2,3,4-tetrahydro-isoquinolin-8-yl}-4-methoxy-phenyl)-acetic acid]",1.12 nM
12,"COc1ccc(CC(=O)O)cc1-c1ccc(Cl)c2c1CN(C(=O)[C@@H]1C[C@H]1c1ccc(Cl)cc1)CC2 [Example 68, (3-{5-Chloro-2-[(1R,2R)-2-(4-chloro-phenyl)-cyclopropanecarbonyl]-1,2,3,4-tetrahydro-isoquinolin-8-yl}-4-methoxy-phenyl)-acetic acid]",3.75 nM
13,"COc1ccc(CC(=O)O)cc1-c1ccc(Cl)c2c1CN(C(=O)CCn1ncc3ccccc31)CC2 [Example 72, {3-[5-Chloro-2-(3-indazol-1-yl-propionyl)-1,2,3,4-tetrahydro-isoquinolin-8-yl]-4-methoxy-phenyl}-acetic acid]",37.8 nM
